ChEMBL document CHEMBL4190194, “Dudawalamides A-D, Antiparasitic Cyclic Depsipeptides from the Marine Cyanobacterium Moorea producens” (J Nat Prod, 2017)
Numbered stars: 1 amine (or outer) side, 2 acyl side, 3 side chain; on linkers, the order of the positions; unused ones are H or OH. Bridge positions count the residues as written; N and C are the ends. Square brackets hold non-standard residues; d marks the D form. Peptide text beside a SMILES is read from it. ξ: configuration not given here. X1 = C#CCCC[C@H](O[*:2])C(C)(C)C(=O)[*:1]; Hmp(2R,3S) = CC[C@H](C)[C@@H](O)C(=O)O; NMeF = CN[C@@H](Cc1ccccc1)C(=O)O; ξNMeF = CNC(Cc1ccccc1)C(=O)O; NMeV = CN[C@H](C(=O)O)C(C)C; Hiv = CC(C)[C@H](O)C(=O)O; ξNMeV = CNC(C(=O)O)C(C)C; ξP = O=C(O)C1CCCN1

Experiments:
[1] = test system: Trypanosoma cruzi; experiment: Antitrypanosomal activity against transgenic beta-galactosidase-expressing Trypanosoma cruzi Tulahuen clone C4 ATCC PRA33 assessed as growth inhibition at 10 ug/ml after 4 days relative to control; format: functional; conditions: Tulahuen clone C4 ATCC PRA33, 96 h, read-out: GI
[2] = test system: NCI-H460; experiment: Cytotoxicity against human H460 cells at 30 uM after 48 hrs by MTT assay; format: cell-based; conditions: nci-h460, 48 h
[3] = test system: Leishmania donovani; experiment: Antileishmanial activity against Leishmania donovani WR2801 axenic amastigotes after 6 days by XTT assay; format: functional, organism-based; conditions: WR2801, 144 h
[4] = test system: Plasmodium falciparum; experiment: Antimalarial activity against chloroquine-resistant Plasmodium falciparum W2 infected in human type A positive erythrocytes by [3H]-hypoxanthine incorporation assay; format: functional, organism-based

For `C#CCCC[C@@H]1OC(=O)CNC(=O)[C@H](Cc2ccccc2)N(C)C(=O)[C@@H]2CCCN2C(=O)[C@@H]([C@@H](C)CC)OC(=O)[C@H](C(C)C)N(C)C(=O)[C@H](C(C)C)NC(=O)C1(C)C` (V[NMeV][Hmp(2R,3S)]P[NMeF]G; linker N-C via X1), the inhibition of growth at 10 µg/mL [1] was 60%, the Activity [2] was “Non-Toxic” and the IC50 [3] was 2.6 µM. For the same compound, the IC50 [4] was 3.5 µM.

For `C#CCCC[C@@H]1OC(=O)CNC(=O)C(Cc2ccccc2)N(C)C(=O)C2CCCN2C(=O)[C@H](C(C)C)OC(=O)C(C(C)C)N(C)C(=O)[C@H](C(C)C)NC(=O)C1(C)C` (some centres undefined) (V[ξNMeV][Hiv][ξP][ξNMeF]G; linker N-C via X1), the Activity [2] was “Non-Toxic” and the IC50 [4] was 10 µM.

With `C#CCCC[C@@H]1OC(=O)[C@H](C)NC(=O)[C@H](Cc2ccc(OC)cc2)N(C)C(=O)[C@@H]2CCCN2C(=O)[C@H](Cc2ccccc2)N(C)C(=O)[C@H](C(C)C)NC(=O)C1(C)C` the inhibition of growth at 10 µg/mL [1] was 7%, the Activity [2] was “Non-Toxic” and the IC50 [3] was greater than 10 µM. For the same compound, the IC50 [4] was 8 µM.

In the case of `C#CCCC[C@H]1OC(=O)CNC(=O)[C@@H](Cc2ccccc2)N(C)C(=O)[C@@H]2CCCN2C(=O)[C@H]([C@@H](C)CC)N(C)C(=O)[C@H](C)NC(=O)[C@H](C)OC(=O)C1(C)C`, the inhibition of growth at 10 µg/mL [1] is reported as 12%, the Activity [2] is reported as “Non-Toxic” and the IC50 [3] is reported as greater than 10 µM. It also gave an IC50 [4] of 3.6 µM.
